According to patent US20220348910A1, “METHODS AND COMPOSITIONS FOR MULTIPLEX GENE EDITING” (THE GOVERNING COUNCIL OF THE UNIVERSITY OF TORONTO, priority 2019, published 2022):

Tested on: HPRT1
Experiment: Pooled positive selection hgRNA screen for resistance to 6-thioguanine
Format: cell-based, human
Conditions: 6-TG treated cells
Description: Lentiviral-based positive selection pooled hgRNA screens were performed, and the human HPRT1 and TK1 genes were targeted using guide pairs that either target within exonic regions, which are expected to result in gene knockout, or intronic loci flanking constitutive exons in these genes, which are expected to result in exon deletion (FIG. 1D). All of the exon-flanking hgRNAs in the library were designed to introduce double-strand DNA breaks at intronic sites that are at least 100 bps distal from splice sites flanking the target exons.
At T18 15 million cells were collected for genomic DNA extraction, and hgRNA expression cassettes were amplified and subjected to high-throughput sequencing as described below.

With Nc1nc2nc[nH]c2c(=S)[nH]1 [6-TG, 6-thioguanine] as the molecule, how does the “library constructs undetectable when cells were treated with 6-TG” value read?
The value was 95.8%.
